Entries after “also recorded” stand apart in the source; their conditions may differ.
Tests used:
A2BAR = target: T1, A2BAR (Homo sapiens, UniProt P29275); assay: Intracellular calcium mobilization, T24 bladder cancer cells, native A2BAR (NECA); type: cell-based
T1 sequence (P29275 1-332): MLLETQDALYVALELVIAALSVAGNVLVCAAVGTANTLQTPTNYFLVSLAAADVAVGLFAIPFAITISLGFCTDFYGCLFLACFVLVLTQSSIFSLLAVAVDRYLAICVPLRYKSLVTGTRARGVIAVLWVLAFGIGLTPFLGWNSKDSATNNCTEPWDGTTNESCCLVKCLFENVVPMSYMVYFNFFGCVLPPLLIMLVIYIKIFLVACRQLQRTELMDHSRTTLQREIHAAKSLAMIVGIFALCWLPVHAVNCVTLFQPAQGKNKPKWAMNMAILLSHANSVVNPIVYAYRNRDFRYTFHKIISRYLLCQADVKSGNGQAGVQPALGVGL

β2-adrenergic receptor = β2-adrenergic receptor (Homo sapiens, UniProt P07550); assay: Intracellular calcium mobilization, T24 bladder cancer cells, endogenous β2-adrenergic receptor; type: cell-based
HMC-1 cells = settings: cited from earlier work
[1] = test system: human erythroleukemia cells; settings: cited from earlier work

Cholera toxin [CTX]
Effect on native A2BAR (NECA)-triggered calcium mobilization (A2BAR): CTX sensitive (5), Variable, depending on cell type^b, c | Effect on formoterol-induced calcium mobilization (β2-adrenergic receptor) (β2-adrenergic receptor): effect larger than it was on the NECA-induced Ca^2+ response; also recorded: CTX sensitive (6) | Sensitivity of NECA-induced Ca2+ increase to toxin (HMC-1 cells): ^b NECA-induced Ca^2+ increase in HMC-1 cells was insensitive to CTX and PTX, Feoktistov et al., 1995 [30] | Sensitivity of NECA-induced Ca2+ increase to toxin [1]: ^c NECA-induced Ca^2+ increase in human erythroleukemia cells was sensitive to CTX, Feoktistov et al., 1994 [31]
